Data: patent US10231939B2, “Hydroxytyrosol and oleuropein compositions for induction of DNA damage, cell death and LSD1 inhibition” (priority 2012, dated 2019)

Tests used:
human keratinocytes = assay: γH2AX immunofluorescence, keratinocytes after γ-radiation; assay type: cell-based; settings: pre-treatment 24 hours
Protocol: Keratinocytes pre-treated with Formulations 1, 2 and 3 (Table 9) for 24 hours prior to exposure to 0, 2 and 12 Gy (137Cs) and incubated for a further hour; 37° C., 5% (v/v) CO2, before staining for γH2AX as previously described.

PBMC = assay: Total Antioxidant Capacity Assay, PBMC; assay type: cell-based, human; settings: 50 μM hydroxytyrosol, 200 μM Oleuropein or Formulation 2 (dilution factor=4), 24 hours
Protocol: Human peripheral blood mononuclear cells were seeded at 1×10^6 cells per well in 12 well culture plates (Nalge Nunc) with Formulation 2 (dilution factor=4) (Table 9), 50 μM hydroxytyrosol or 200 μM Oleuropein for 24 hours; 37° C., 5% (v/v) CO2. In separate experiments, cells were treated with 30 mM glucose for 72 hours prior to 24 hours incubation in fresh media and then a 24 hour incubation with the hydroxytyrosol-containing formulation 2 (dilution factor=4); 37° C., 5% (v/v) CO2. Experiments to determine the protection of cells following doxorubicin treatment involved pre-treatment with Formulation 2 (dilution factor=4) for 24 hours prior to 1 hour incubation with 1 μM doxorubicin. Cells were washed and incubated for a further 24 hours in fresh media; 37° C., 5% (v/v) CO2. Cells were harvested for their total protein by centrifugation at 1000×g for 10 minutes at 4° C. to pellet cell suspensions. […] Cell lysates were analyzed for their total antioxidant capacity. […] The sum of endogenous and food-derived antioxidants in the sample represented the total antioxidant activity of the cells and was measured by their ability to inhibit the oxidation of ABTS (2,2′-Azino-di-[3-ethylbenzthiazoline sulphonate]) in the presence of metmyoglobin using the Perkin Elmer Multi-plate reader (λem=750 nm). […]

K562 cells = assay: γH2AX immunofluorescence, K562; assay type: cell-based, human
Protocol: Cells were seeded at densities of 1×10^6/mL in 24 well culture (Nalge Nunc, New York, USA) and treated with hydroxytyrosol (0, 20, 100 μM), for 24 hours at 37° C., 5% (v/v) CO2. Cells were then stained and quantified for the number of γH2AX foci per cell nuclei. Briefly, using cytofunnels and filter cards, aliquots of […] were cytospun (Shandon, Inc.) for 5 minutes at 500 rpm onto Poly-o-lysine slides (Menzel-Glaser, Germany). All cells were then fixed for 10 minutes with 4% paraformaldehyde (Sigma-Aldrich, USA), washed once for five minutes with PBS without calcium and magnesium and permeabilized using 0.1% Triton X-100(Sigma-Aldrich, USA) for 10 minutes at room temperature. […]
Images were acquired using a Zeiss LSM 510 Meta laser confocal microscope fitted with a Z-stage motor and 63× oil plan apochromat objective with a refractive index of 1.40. […] Images required for γH2AX quantification were acquired in 512×512 pixel format and loaded into Image J (Fiji version 1.44a). […]
Image J software was used for the quantification of foci in all experiments. […] Now clearly defined nuclear regions were selected, numbers of foci were quantified by using the find maxima tool. […] Foci were now quantified as a total number for all cells selected. The average number of foci per nucleus was calculated and recorded into Excel spread sheets (Microsoft, Redmond, Wash., USA). […]

SMILES: OCCc1ccc(O)c(O)c1 [HT, 4-(2-hydroxyethyl)-1,2-benzenediol]
- radiation-induced DNA damage (human keratinocytes): protects
- total antioxidant capacity (PBMC; listed as Hydroxytyrosol): significantly increased the total antioxidant
- total antioxidant capacity (PBMC; listed as hydroxytyrosol): enhance the antioxidant capacity
- DNA double-strand breaks (γH2AX accumulation) (K562 cells; K562, 0, 20, 100 μM, 24 hours): induces significant DNA-double strand breaks
- effect on DNA damage by anti-cancer modalities (doxorubicin, vinblastine, mitomycin C, UVA, γ-radiation) (K562 cells; K562, 100 μM hydroxytyrosol pre-treatment 24 hours): enhances the DNA damaging effects
